According to ChEMBL document CHEMBL1201862, “PubChem BioAssay data set” (2004):
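1) Cells in 96-well plates. 2) Compound, 48 h, 5 concentrations. 3) Linear interpolation between surrounding doses. 4) Unreached endpoint = highest concentration. Abbreviation: GI50, concentration required for 50% inhibition of growth.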 Activity calls are given as the source filed them. No stated cut-off is given here; in the data, active = GI50 up to about 1.1 µM and inactive = higher.

Assays:
Test in all cases: growth of human tumour cells (NCI), 48 h
A549 = test system: A549
ACHN = test system: ACHN
CAKI-1 = test system: CAKI-1
DU-145 = test system: DU-145
HCT-116 = test system: HCT-116
HCT-15 = test system: HCT-15
HOP-92 = test system: HOP-92
HT-29 = test system: HT-29
Hs-578T = test system: Hs-578T
IGROV-1 = test system: IGROV-1
MDA-MB-231 = test system: MDA-MB-231
MDA-MB-435 = test system: MDA-MB-435
NCI-H226 = test system: NCI-H226
NCI-H23 = test system: NCI-H23
PC-3 = test system: PC-3
RXF 393 = test system: RXF 393
SF-268 = test system: SF-268
UACC-62 = test system: UACC-62
XF498 = test system: XF498
DMS-114 = test system: DMS-114

| SMILES | GI50 (A549) | GI50 (ACHN) | GI50 (CAKI-1) | GI50 (DU-145) | GI50 (HCT-116) | GI50 (HCT-15) [µM] | GI50 (HOP-92) | GI50 (HT-29) | GI50 (Hs-578T) | GI50 (IGROV-1) | GI50 (MDA-MB-231) | GI50 (MDA-MB-435) | GI50 (NCI-H226) | GI50 (NCI-H23) | GI50 (PC-3) | GI50 (RXF 393) | GI50 (SF-268) | GI50 (UACC-62) | GI50 (XF498) | GI50 (DMS-114) |
| --- | --- | --- | --- | --- | --- | --- | --- | --- | --- | --- | --- | --- | --- | --- | --- | --- | --- | --- | --- | --- |
| Cc1nc(N)nc(S)c1CCCNc1ccccc1 | 52.2 µM (inactive) | 90.2 µM (inactive) | > 100 µM (inactive) | 76.2 µM (inactive) | 79.6 µM (inactive) | > 100 | > 100 µM (inactive) | 68.7 µM (inactive) | > 100 µM (inactive) | > 100 µM (inactive) | > 100 µM (inactive) | 74 µM (inactive) | > 100 µM (inactive) | 88.5 µM (inactive) | 61.2 µM (inactive) | > 100 µM (inactive) | 62.5 µM (inactive) | 78.2 µM (inactive) | – | – |
| c1cncc(CSc2nc3ccccc3nc2-c2cccs2)c1 | 53.6 µM (inactive) | 36.9 µM (inactive) | > 10 µM (inactive) | – | > 100 µM (inactive) | 81.1 | – | 57.1 µM (inactive) | – | – | – | – | 70 µM (inactive) | > 100 µM (inactive) | – | – | 7.71 µM (inactive) | – | 35.3 µM (inactive) | – |
| Cc1cc(O)nc(NN2C(Cl)C(=O)C2c2ccc(O)cc2)n1 (configuration not stated) | 13.6 µM (inactive) | 8.07 µM (inactive) | 7.13 µM (inactive) | 10.9 µM (inactive) | 4.81 µM (inactive) | 4.31 | 14.9 µM (inactive) | 6.65 µM (inactive) | 14.5 µM (inactive) | 7.71 µM (inactive) | 14 µM (inactive) | 8.47 µM (inactive) | 10.5 µM (inactive) | 9.62 µM (inactive) | 13.2 µM (inactive) | 4.26 µM (inactive) | 8.45 µM (inactive) | 5.04 µM (inactive) | – | 7.35 µM (inactive) |
| COC(=O)C1=CCC[C@H]2[C@@]1(COC(C)=O)CC[C@@H](C)[C@]2(C)CC(=O)c1ccoc1 | 19 µM (inactive) | 16.9 µM (inactive) | 18.6 µM (inactive) | 21.5 µM (inactive) | 9.91 µM (inactive) | 13.9 | 10.9 µM (inactive) | 8.65 µM (inactive) | 13.4 µM (inactive) | 15.9 µM (inactive) | 17.2 µM (inactive) | 16.7 µM (inactive) | 15.8 µM (inactive) | 13.8 µM (inactive) | 14.7 µM (inactive) | 19.6 µM (inactive) | 27.2 µM (inactive) | 7.93 µM (inactive) | – | – |
| C=C1C(=O)OC2CC(C)C(/C=C/C(C)=O)=CCC12 (configuration not stated) | > 100 µM (inactive) | > 100 µM (inactive) | > 100 µM (inactive) | > 100 µM (inactive) | 43.3 µM (inactive) | > 100 | > 100 µM (inactive) | > 100 µM (inactive) | > 100 µM (inactive) | > 100 µM (inactive) | > 100 µM (inactive) | > 100 µM (inactive) | > 100 µM (inactive) | > 100 µM (inactive) | > 100 µM (inactive) | > 100 µM (inactive) | > 100 µM (inactive) | > 100 µM (inactive) | – | – |
| Cc1ccc2nc(/C=N/c3ccc(Cl)cc3)cc(C)c2c1 | 1.24 µM (inactive) | 0.128 µM (active) | 1.38 µM (inactive) | 0.659 µM (active) | 1.08 µM (active) | 0.027 | 18.6 µM (inactive) | 2.64 µM (inactive) | 15.8 µM (inactive) | 0.989 µM (active) | 4.94 µM (inactive) | 1.04 µM (active) | 18.4 µM (inactive) | 9.91 µM (inactive) | 1.9 µM (inactive) | 24.7 µM (inactive) | 14.7 µM (inactive) | 0.133 µM (active) | – | – |
| O=C(CSCC(=O)N/N=C/c1cccc(OCc2ccccc2)c1)N/N=C/c1cccc(OCc2ccccc2)c1 | 27.9 µM (inactive) | 32.9 µM (inactive) | > 100 µM (inactive) | > 100 µM (inactive) | 26.8 µM (inactive) | 44.4 | 36.7 µM (inactive) | 39.5 µM (inactive) | > 100 µM (inactive) | > 70.8 µM (inactive) | > 100 µM (inactive) | 37.5 µM (inactive) | > 74.5 µM (inactive) | 36.6 µM (inactive) | 20 µM (inactive) | > 69.7 µM (inactive) | > 80.2 µM (inactive) | > 92.3 µM (inactive) | – | – |
| Cn1c(O)c(C(=O)Nc2cccs2)c(=O)[nH]c1=S | 19.4 µM (inactive) | 12.9 µM (inactive) | 13 µM (inactive) | – | 13.4 µM (inactive) | 12.7 | 12.6 µM (inactive) | 18.2 µM (inactive) | – | 18.2 µM (inactive) | – | – | 14.5 µM (inactive) | 14.5 µM (inactive) | – | – | 18.8 µM (inactive) | 14.1 µM (inactive) | – | 14.5 µM (inactive) |
| COc1ccc(NC(=O)CCc2cc(-c3ccc(O)c(OC)c3)nc(NC#N)n2)cc1 | > 100 µM (inactive) | > 100 µM (inactive) | > 100 µM (inactive) | – | > 100 µM (inactive) | > 100 | > 100 µM (inactive) | > 100 µM (inactive) | – | > 100 µM (inactive) | – | – | > 100 µM (inactive) | > 100 µM (inactive) | – | > 100 µM (inactive) | > 100 µM (inactive) | > 100 µM (inactive) | – | > 100 µM (inactive) |
| OC(CCN1CCN(CCOC(c2ccc(F)cc2)c2ccc(F)cc2)CC1)c1ccccc1 (configuration not stated) | 16.4 µM (inactive) | 12.9 µM (inactive) | 16.8 µM (inactive) | 17.3 µM (inactive) | 13.4 µM (inactive) | 13.6 | 10.3 µM (inactive) | 8.65 µM (inactive) | 16 µM (inactive) | 13.6 µM (inactive) | 14.6 µM (inactive) | 17.8 µM (inactive) | 15 µM (inactive) | 16.6 µM (inactive) | 13.6 µM (inactive) | 11.1 µM (inactive) | 16.9 µM (inactive) | 14.5 µM (inactive) | – | – |
| CC(=O)n1c(=O)c2cc3c(=O)n(-c4cccc(C#N)c4)c(=O)c3cc2c1=O | > 100 µM (inactive) | > 100 µM (inactive) | > 100 µM (inactive) | – | > 100 µM (inactive) | > 100 | 39.2 µM (inactive) | > 100 µM (inactive) | – | > 100 µM (inactive) | – | – | > 100 µM (inactive) | > 100 µM (inactive) | – | > 100 µM (inactive) | > 100 µM (inactive) | > 100 µM (inactive) | – | > 100 µM (inactive) |
| O=C(O)CCSC(=O)Nc1ccc([N+](=O)[O-])cc1 | > 100 µM (inactive) | > 100 µM (inactive) | > 100 µM (inactive) | – | > 100 µM (inactive) | > 100 | – | > 100 µM (inactive) | – | 72.8 µM (inactive) | – | – | – | > 100 µM (inactive) | – | > 100 µM (inactive) | > 100 µM (inactive) | – | – | > 100 µM (inactive) |
| CCOC(=O)/C=C(/C(=O)OCC)n1cc(C)c(=O)[nH]c1=O | 16.4 µM (inactive) | 2.72 µM (inactive) | 1.15 µM (inactive) | 16.1 µM (inactive) | 2.43 µM (inactive) | 2.04 | 1.71 µM (inactive) | 4.92 µM (inactive) | 17.7 µM (inactive) | 5.36 µM (inactive) | 4.51 µM (inactive) | 3.07 µM (inactive) | 5.46 µM (inactive) | 5.56 µM (inactive) | 8.15 µM (inactive) | 1.95 µM (inactive) | 8.65 µM (inactive) | 5.14 µM (inactive) | – | – |
| CC1=NN(c2ccccc2)C(=O)C1C(=O)C(=O)Nc1ccc(C)cc1C (configuration not stated) | > 100 µM (inactive) | > 100 µM (inactive) | > 100 µM (inactive) | > 100 µM (inactive) | > 100 µM (inactive) | > 100 | > 94.2 µM (inactive) | > 100 µM (inactive) | > 100 µM (inactive) | > 100 µM (inactive) | – | – | > 100 µM (inactive) | > 100 µM (inactive) | > 100 µM (inactive) | > 100 µM (inactive) | > 100 µM (inactive) | > 100 µM (inactive) | – | > 100 µM (inactive) |
| Cc1cc(C)c2c(O)cc(-c3ccc4ccccc4c3)nc2n1 | 12.5 µM (inactive) | 46 µM (inactive) | 54.6 µM (inactive) | 21.7 µM (inactive) | 13.8 µM (inactive) | 6.1 | 11.1 µM (inactive) | 12.1 µM (inactive) | 16.4 µM (inactive) | 12.6 µM (inactive) | 23.1 µM (inactive) | 2.92 µM (inactive) | 19.5 µM (inactive) | 30.8 µM (inactive) | 10.2 µM (inactive) | 71.6 µM (inactive) | 57.3 µM (inactive) | 14.7 µM (inactive) | – | – |
| CCCCCNC(=O)c1cc2cc(CCl)ccc2oc1=O | 4.65 µM (inactive) | 2.01 µM (inactive) | 1.21 µM (inactive) | 2.26 µM (inactive) | 3.84 µM (inactive) | 1.95 | 1.95 µM (inactive) | 2.42 µM (inactive) | 6.37 µM (inactive) | 4.71 µM (inactive) | 1.97 µM (inactive) | 9.27 µM (inactive) | 14.2 µM (inactive) | 2.62 µM (inactive) | 1.33 µM (inactive) | 0.798 µM (active) | 3.19 µM (inactive) | 2.45 µM (inactive) | – | – |
| CC(=O)O[C@@]12CO[C@@H]1C[C@H](O)[C@@]1(C)C(=O)[C@H](O)C3=C(C)[C@@H](OC(=O)[C@H](O)[C@@H](NC(=O)OC(C)(C)C)c4ccccc4)C[C@@](O)([C@@H](OC(=O)c4ccccc4)[C@H]21)C3(C)C [DOCETAXEL] | < 0.01 µM (active) | 0.59 µM (active) | 0.0417 µM (active) | – | < 0.01 µM (active) | 0.0493 | 9.04 µM (inactive) | < 0.01 µM (active) | 0.00104 µM (active) | < 0.01 µM (active) | 0.0216 µM (active) | 0.000149 µM (active) | – | < 0.01 µM (active) | 0.00578 µM (active) | 0.242 µM (active) | < 0.01 µM (active) | < 0.01 µM (active) | – | < 0.01 µM (active) |
